For 15 compounds, IC50 results are on record in patent US20240034731A1, “AZA-QUINAZOLINE COMPOUNDS AND METHODS OF USE” (Iambic Therapeutics, Inc., priority 2022, published 2024).

Assay [1] has as its system MCF-7 cells. The assay can be described thus: Cell Growth Inhibition, MCF-7 (CellTiterGlo, 6 days). Conditions: Homo sapiens, MCF7, 144 h, MCF-7, 6-day treatment. Format: cell-based. The gist of the method: (§1)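 IC50 from four-parameter, variable-slope fits of % growth inhibition, derived from CellTiterGlo 2.0 luminescence relative to control. Compounds, usually 10-10,000 nM in half-log steps, stayed 6 days at 37 °C, 5% CO2 with 500 MCF-7 or OVCAR-3 cells/well in 10% FBS RPMI.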
In general terms: ATP-based viability assays read luminescence as a measure of living cells.

For assay [2], the target named is CDK2/Cyclin E1 (Homo sapiens (Human), UniProt P24941). The experiment in a line: CDK2/Cyclin E1 Full length ADP-Glo Kinase Assay. Conditions: 20 uM ATP, read-out: CDK2/ CyclinE1 IC50. Format: biochemical. Summed up:
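ADP-Glo luminescence (ATP depletion, then ADP-to-light conversion) quantified kinase turnover after a 90 min room-temperature reaction started by ATP/substrate, following 30 min enzyme–inhibitor preincubation. Enzyme: full-length CDK2/cyclin E1; IC50 fitted with a four-parameter equation on fractional velocity.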

Assay [3] deals with T1, CDK4/Cyclin D1 (Homo sapiens (Human), UniProt P11802). The assay can be described thus: CDK4/Cyclin D1 Mobility Shift Assay (MSA). Format: biochemical. Conditions: 0.2 mM ATP, read-out: CDK4/ CyclinD1 MSA IC50. The text has this: CDK4/Cyclin D1 Mobility Shift Assay (MSA)
The purpose CDK4/Cyclin D1 assay is to evaluate the inhibition (% inhibition and IC50 values) in the presence of small molecule inhibitors by using a fluorescence based microfluidic mobility shift assay. CDK4/Cyclin D1 catalyzes the production of ADP from ATP that accompanies the phosphoryl transfer to the substrate peptide 5-FAM-Dyrktide (5-FAM-[…]) (Perkin Elmer Peptide 34). The mobility shift assay (MSA) electrophoretically separates the fluorescently labelled peptides (substrate and phosphorylated product) following the kinase reaction. Both substrate and product are measured, and the ratio of these values is used to generate % conversion of substrate to product by the LabChip EZ Reader. Typical reaction solutions contained 2% DMSO (+/− inhibitor), 10 mM MgCl2, 1 mM EGTA, 0.05% BSA, 2 mM DTT, 0.2 mM ATP, 0.01% Brig-35, 1.5 uM 5-FAM-Dyrktide, 2.5 nM CDK4/Cyclin D1 in 50 mM HEPES buffer at pH 7.5. The reaction was initiated with the addition of substrate solution, following a 30-minute pre-incubation of enzyme and inhibitor at 22° C. in the reaction mix. The reaction was stopped after 180 minutes by the addition of 75 uL of 500 mM EDTA and measured on a Perkin Elmer EZ reader instrument. IC50 determinations were made from a plot of the fractional velocity as a function of inhibitor concentration fit to the 4 parameters IC50 equation.

Assay [4] has as its system OVCAR-3 cells. The assay can be described thus: Cell Growth Inhibition, OVCAR-3 (CellTiterGlo, 6 days). It counts as cell-based. Conditions: Homo sapiens, 144 h, OVCAR-3, 6-day treatment. Summed up: as §1
Assay [5] addresses CDK1/Cyclin B1 (Homo sapiens (Human), UniProt P06493). The experiment in a line: CDK1/Cyclin B1 ADP-Glo Kinase Assay. Format: biochemical. Conditions: ADP-Glo, 80 uM ATP; read-out: CDK1 Cyclin B1 IC50. Summed up:
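ADP-Glo luminescent readout of ADP production, with IC50 fitted by a four-parameter equation to fractional velocity against inhibitor concentration. Reaction started with ATP-containing substrate after a 30-minute enzyme–inhibitor pre-incubation and stopped after 90 minutes, both at room temperature.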
(In general: ADP-Glo first removes unused ATP, then detects ADP through luciferase.)

Assay [6] concerns the target CDK6/Cyclin D3 (Homo sapiens (Human), UniProt Q00534). The experiment in a line: CDK6/Cyclin D3 ADP-Glo Kinase Assay. Format: biochemical. Conditions: 100 uM ATP, read-out: CDK6/ CyclinD3 IC50. Summed up: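 ADP-Glo luminescence measured ADP produced by CDK6/Cyclin D3 in a 90-min room-temperature reaction started with ATP-containing substrate, after 30-min enzyme–inhibitor pre-incubation. Fractional velocity was plotted against inhibitor concentration and fitted to a four-parameter IC50 model.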

In assay [7] the target is T1, CDK4/Cyclin D1. The experiment in a line: CDK4/Cyclin D1 CHEF Assay (AQT0258 peptide). Format: biochemical. Conditions: 200 uM ATP, read-out: CDK4/ CyclinD1 AQT IC50. The gist of the method: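 Sox-labelled peptide AQT0258 phosphorylation read as chelation-enhanced fluorescence (ex 360/em 485 nm) with Mg(II). Enzyme preincubated with inhibitor 30 min at 22°C, substrate added, 3 h at 22°C; IC50 from four-parameter fit of fractional velocity versus inhibitor concentration.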

Chain of CDK6/Cyclin D3 (Q00534 whole entry): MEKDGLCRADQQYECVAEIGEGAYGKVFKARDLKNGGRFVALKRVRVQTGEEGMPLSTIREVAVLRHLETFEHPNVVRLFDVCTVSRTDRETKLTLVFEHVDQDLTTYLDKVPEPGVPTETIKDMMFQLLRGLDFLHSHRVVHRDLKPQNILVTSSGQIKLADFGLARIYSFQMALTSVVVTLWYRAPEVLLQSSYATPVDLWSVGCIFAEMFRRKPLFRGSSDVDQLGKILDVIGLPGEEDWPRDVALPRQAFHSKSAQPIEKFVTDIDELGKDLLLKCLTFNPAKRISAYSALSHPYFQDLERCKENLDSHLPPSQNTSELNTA
Chain of CDK6/Cyclin D3 (P30281 whole entry partner): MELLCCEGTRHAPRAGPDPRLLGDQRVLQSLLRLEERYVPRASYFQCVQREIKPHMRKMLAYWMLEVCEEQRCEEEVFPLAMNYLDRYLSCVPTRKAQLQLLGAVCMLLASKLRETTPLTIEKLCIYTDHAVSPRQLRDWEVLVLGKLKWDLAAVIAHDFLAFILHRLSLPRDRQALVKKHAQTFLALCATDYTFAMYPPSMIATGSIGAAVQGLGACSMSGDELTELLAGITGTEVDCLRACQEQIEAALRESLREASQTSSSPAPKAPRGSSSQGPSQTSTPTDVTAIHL
T1 sequence (P11802 whole entry): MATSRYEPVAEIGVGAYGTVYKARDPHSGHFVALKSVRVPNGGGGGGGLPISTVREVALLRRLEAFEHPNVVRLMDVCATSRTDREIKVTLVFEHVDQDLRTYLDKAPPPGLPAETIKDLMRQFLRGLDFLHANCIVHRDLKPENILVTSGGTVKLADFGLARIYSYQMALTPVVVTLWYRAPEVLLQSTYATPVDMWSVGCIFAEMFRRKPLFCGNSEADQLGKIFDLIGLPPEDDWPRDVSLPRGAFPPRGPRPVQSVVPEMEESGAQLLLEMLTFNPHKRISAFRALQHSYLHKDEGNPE
T1 sequence (P24385 whole entry partner): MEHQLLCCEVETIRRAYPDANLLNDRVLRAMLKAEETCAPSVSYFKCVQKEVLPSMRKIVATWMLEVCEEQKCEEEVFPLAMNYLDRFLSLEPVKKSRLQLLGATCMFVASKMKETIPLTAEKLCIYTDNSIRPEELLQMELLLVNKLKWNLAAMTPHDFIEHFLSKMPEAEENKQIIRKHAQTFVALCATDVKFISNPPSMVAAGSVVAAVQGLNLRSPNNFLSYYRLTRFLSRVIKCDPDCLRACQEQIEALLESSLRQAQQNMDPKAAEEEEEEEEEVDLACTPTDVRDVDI
Chain of CDK1/Cyclin B1 (P06493 whole entry): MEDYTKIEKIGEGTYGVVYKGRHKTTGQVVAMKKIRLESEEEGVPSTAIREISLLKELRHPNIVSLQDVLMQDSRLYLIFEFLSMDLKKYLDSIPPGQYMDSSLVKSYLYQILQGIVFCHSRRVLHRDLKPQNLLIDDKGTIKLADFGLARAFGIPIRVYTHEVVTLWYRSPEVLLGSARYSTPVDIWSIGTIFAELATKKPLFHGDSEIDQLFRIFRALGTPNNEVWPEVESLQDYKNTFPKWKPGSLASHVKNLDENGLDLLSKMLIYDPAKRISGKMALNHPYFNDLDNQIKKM
Chain of CDK1/Cyclin B1 (P14635 whole entry partner): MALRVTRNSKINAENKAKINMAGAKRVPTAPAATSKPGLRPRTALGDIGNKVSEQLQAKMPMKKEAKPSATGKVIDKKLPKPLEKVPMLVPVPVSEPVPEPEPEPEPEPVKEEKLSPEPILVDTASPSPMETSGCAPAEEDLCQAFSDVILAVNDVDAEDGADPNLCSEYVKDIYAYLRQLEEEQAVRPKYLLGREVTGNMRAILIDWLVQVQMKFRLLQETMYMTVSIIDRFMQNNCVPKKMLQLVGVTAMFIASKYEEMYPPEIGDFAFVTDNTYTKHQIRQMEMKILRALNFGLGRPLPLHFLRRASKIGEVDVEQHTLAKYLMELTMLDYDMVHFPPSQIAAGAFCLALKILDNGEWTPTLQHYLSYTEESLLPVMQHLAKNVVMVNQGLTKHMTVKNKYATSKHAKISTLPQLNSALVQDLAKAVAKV

As for `CS(=O)(=O)N1CC(Nc2ncc3ccnc(N4CCC5(C4)CC5(F)F)c3n2)C1` (stereo not drawn) [Compound 14, 8-(1,1-difluoro-5-azaspiro[2.4]heptan-5-yl)-N-(1-(methylsulfonyl)azetidin-3-yl)pyrido[3,4-d]pyrimidin-2-amine], the IC50 in assay [1] was over 2000 nM; in assay [2] it was under 200 nM; in assay [3], under 200 nM; in assay [4], over 2000 nM; in assay [5], 200 to 500 nM; in assay [6] it was under 200 nM.
`CS(=O)(=O)N1CCC(Nc2ncc3ccnc(N4CC5(CCCC5)c5c(F)cccc54)c3n2)CC1` [Compound 19, 8-(4′-fluorospiro[cyclopentane-1,3′-indolin]-1′-yl)-N-(1-(methylsulfonyl)piperidin-4-yl)pyrido[3,4-d]pyrimidin-2-amine]: the IC50 in assay [1] was over 2000 nM; in assay [2] it was under 200 nM; in assay [3], 500 to 2000 nM; in assay [4], over 2000 nM; in assay [5], over 2000 nM; in assay [6] it was over 2000 nM.
For the compound `CN1C[C@@H]2[C@H](C1)[C@H]2Nc1ncc2ccnc(N3CCC4(CCN(S(C)(=O)=O)C4)C3)c2n1` (stereo partly drawn) [Compound 15, N-((1R,5S,6s)-3-methyl-3-azabicyclo[3.1.0]hexan-6-yl)-8-(7-(methylsulfonyl)-2,7-diazaspiro[4.4]nonan-2-yl)pyrido[3,4-d]pyrimidin-2-amine], the IC50 was over 2000 nM in assay [1]; 500 to 2000 nM in assay [2]; 500 to 2000 nM in assay [3]; over 2000 nM in assay [4]; over 2000 nM in assay [5]; over 2000 nM in assay [6].
As to `CCN1CC2(C1)CN(c1ccc(Nc3ncc4ccnc(N5CCC6(C5)CC(F)(F)C6)c4n3)nc1)C2` [Example 6, 8-(2,2-difluoro-6-azaspiro[3.4]octan-6-yl)-N-(5-(6-ethyl-2,6-diazaspiro[3.3]heptan-2-yl)pyridin-2-yl)pyrido[3,4-d]pyrimidin-2-amine], the IC50 in assay [1] is 500 to 2000 nM; in assay [2], 500 to 2000 nM; in assay [3] it was under 200 nM; in assay [4], over 2000 nM; in assay [5], over 2000 nM; in assay [6] it was under 200 nM.
Turning to `CN1CCN(c2ccc(Nc3ncc4ccnc(N5CCC6(C5)CC(F)(F)C6)c4n3)cc2)CC1` [Compound 4, 8-(2,2-difluoro-6-azaspiro[3.4]octan-6-yl)-N-(4-(4-methylpiperazin-1-yl)phenyl)pyrido[3,4-d]pyrimidin-2-amine], the IC50 is 200 to 500 nM in assay [1]; under 200 nM in assay [2]; under 200 nM in assay [3]; 500 to 2000 nM in assay [4]; 200 to 500 nM in assay [5]; under 200 nM in assay [6].
For `CCN1CC2(C1)CN(c1ccc(Nc3ncc4ccnc(N5CCC6(CCOCC6)C5)c4n3)nc1)C2` [Compound 18, N-(5-(6-ethyl-2,6-diazaspiro[3.3]heptan-2-yl)pyridin-2-yl)-8-(8-oxa-2-azaspiro[4.5]decan-2-yl)pyrido[3,4-d]pyrimidin-2-amine], the IC50 in assay [1] was 200 to 500 nM; in assay [2], 500 to 2000 nM; in assay [3], under 200 nM; in assay [4], over 2000 nM; in assay [5], over 2000 nM; in assay [6], under 200 nM.
For `CS(=O)(=O)N1CCC(Nc2ncc3ccnc(N4CCC5(C4)CC(F)(F)C5)c3n2)CC1` [Example 2, 8-(2,2-difluoro-6-azaspiro[3.4]octan-6-yl)-N-(1-(methylsulfonyl)piperidin-4-yl)pyrido[3,4-d]pyrimidin-2-amine], the IC50 in assay [1] was 500 to 2000 nM; in assay [2], under 200 nM; in assay [3] it was under 200 nM; in assay [4] it was 500 to 2000 nM; in assay [5], under 200 nM; in assay [6], under 200 nM.
Regarding `CN1CCN(c2ccc(Nc3ncc4ccnc(N5CCC6(CCN(S(C)(=O)=O)C6)C5)c4n3)cc2)CC1` (stereo not drawn) [Compound 9, N-(4-(4-methylpiperazin-1-yl)phenyl)-8-(7-(methylsulfonyl)-2,7-diazaspiro[4.4]nonan-2-yl)pyrido[3,4-d]pyrimidin-2-amine], the IC50 in assay [1] is 500 to 2000 nM; in assay [3], under 200 nM; in assay [4], 500 to 2000 nM; in assay [5], 200 to 500 nM.
Take `CN1C[C@@H]2[C@H](C1)[C@H]2Nc1ncc2ccnc(N3CCC4(C3)CC4(F)F)c2n1` (stereo partly drawn) [Compound 17, 8-(1,1-difluoro-5-azaspiro[2.4]heptan-5-yl)-N-((1R,5S,6s)-3-methyl-3-azabicyclo[3.1.0]hexan-6-yl)pyrido[3,4-d]pyrimidin-2-amine]: the IC50 was 500 to 2000 nM in assay [1]; 200 to 500 nM in assay [2]; under 200 nM in assay [3]; 500 to 2000 nM in assay [4]; over 2000 nM in assay [5]; 200 to 500 nM in assay [6].
As for `CS(=O)(=O)N1CCC(Nc2ncc3ccnc(N4CCN(C5CC5)CC4)c3n2)CC1` [Compound 1, 8-(4-cyclopropylpiperazin-1-yl)-N-(1-(methylsulfonyl)piperidin-4-yl)pyrido[3,4-d]pyrimidin-2-amine], the IC50 in assay [1] was 500 to 2000 nM; in assay [2], under 200 nM; in assay [3], under 200 nM; in assay [4], over 2000 nM; in assay [5] it was 500 to 2000 nM; in assay [6], 200 to 500 nM.
Take `CN1Cc2ccc(Nc3ncc4ccnc(N5CCC6(C5)CC6(F)F)c4n3)cc2C1` (stereo not drawn) [Compound 22, 8-(1,1-difluoro-5-azaspiro[2.4]heptan-5-yl)-N-(2-methylisoindolin-5-yl)pyrido[3,4-d]pyrimidin-2-amine]: the IC50 in assay [1] was 200 to 500 nM; in assay [2], under 200 nM; in assay [3], under 200 nM; in assay [4], 200 to 500 nM; in assay [5] it was under 200 nM; in assay [6], under 200 nM.
Consider `CCN1CC2(C1)CN(c1ccc(Nc3ncc4ccnc(N5CCC6(C5)CC6(F)F)c4n3)nc1)C2` (stereo not drawn) [Compound 21, 8-(1,1-difluoro-5-azaspiro[2.4]heptan-5-yl)-N-(5-(6-ethyl-2,6-diazaspiro[3.3]heptan-2-yl)pyridin-2-yl)pyrido[3,4-d]pyrimidin-2-amine], for which the IC50 in assay [2] is 200 to 500 nM; in assay [3], under 200 nM; in assay [5], over 2000 nM; in assay [6] it was under 200 nM.
Consider `CS(=O)(=O)N1CCC(Nc2ncc3ccnc(N4CC5(C4)CN(C4CC4)C5)c3n2)CC1` [Compound 8, 8-(6-cyclopropyl-2,6-diazaspiro[3.3]heptan-2-yl)-N-(1-(methylsulfonyl)piperidin-4-yl)pyrido[3,4-d]pyrimidin-2-amine], for which the IC50 in assay [1] is 500 to 2000 nM; in assay [3] it was under 200 nM; in assay [4] it was under 200 nM; in assay [5] it was 200 to 500 nM.
In the case of `Cc1cc2cnc(NC3CCN(S(C)(=O)=O)CC3)nc2c(N2CC3(CC(O)C3)C2)n1` [Compound 73, 2-(6-methyl-2-((1-(methylsulfonyl)piperidin-4-yl)amino)pyrido[3,4-d]pyrimidin-8-yl)-2-azaspiro[3.3]heptan-6-ol], the IC50 is over 2000 nM in assay [1]; under 200 nM in assay [2]; over 2000 nM in assay [4]; under 200 nM in assay [7]; 500 to 2000 nM in assay [5]; 200 to 500 nM in assay [6].
As to `CS(=O)(=O)N1CCC(Nc2ncc3cc(C(F)F)nc(N4CC5(CCNCC5(F)F)C4)c3n2)CC1` [Compound 90, 8-(5,5-difluoro-2,7-diazaspiro[3.5]nonan-2-yl)-6-(difluoromethyl)-N-(1-(methylsulfonyl)piperidin-4-yl)pyrido[3,4-d]pyrimidin-2-amine], the IC50 in assay [1] was 500 to 2000 nM; in assay [2], under 200 nM; in assay [4], 500 to 2000 nM; in assay [7], under 200 nM; in assay [5] it was under 200 nM; in assay [6] it was under 200 nM.
